Source: patent US5380729A, “12-hetero substituted 6,11-ethano-6,11-dihydrobenzo (b) quinolizinium salts and compositions and method of use thereof” (Sterling Winthrop Inc., priority 1993, dated 1995)

Legend:
PCP recognition sites = assay: [3H]TCP Radioreceptor Assay (internal screen); assay type: binding, rat (male Sprague-Dawley; conditions: rat whole brain membranes, room temperature, 25 min; for Ki: ~1 nM [3H]TCP; for Percent inhibition, [3H]TCP (internal screen): @ 10 μM
Method: [^3 H]TCP Radioreceptor Assay (internal screen)
[^3 H]TCP binding to PCP recognition sites was performed as described by Vignon et al. Brain Research 1983, 280, 194°197. Male Sprague-Dawley rats were sacrificed by decapitation, and whole brains were homogenized in 10 volumes (wt/vol) of cold Tris-HCl buffer (50 mM, pH 7.7) using a Brinkmann Polytron (setting 6, 30 sec). The homogenate was centrifuged at 40,000×g for 10 min at 4° C. The supernatant was decanted, and the homogenization and centrifugation steps were repeated twice as described above. Following this, the pellet was resuspended in Tris-HCl (5 mM, pH 7.7) at a tissue concentration of 0.5°0.75 g/ml, and one ml aliquots were frozen at -70° C. until use. The binding characteristics for PCP recognition sites were not altered by the freezing of membrane suspensions.
On the day of the assay, membrane aliquots were thawed, resuspended in fresh 5 mM Tris-HCl buffer at a tissue concentration of 1 mg/ml, and stored on ice until use. Each assay tube contained 100 μl of [^3 H]TCP at a final concentration of approximately 1 nM, 100 μl of various concentrations of the compounds of interest, 500 μl of the tissue suspension and 300 of buffer to a final assay volume of 1 ml and a final protein concentration of 0.5 mg/tube. Non-specific binding was defined by addition of a final concentration of 100 μM PCP to blank tubes. All tubes were incubated at room temperature for 25 min before termination of the reaction by rapid filtration over Whatman GF/B glass fiber filters that had been presoaked in a solution of 0.5% polyethylenimine for at least 1 hr prior to use. Filters were washed with three 4 ml volumes of cold Tris buffer. Following addition of scintillation cocktail, the amount of bound radioactivity was determined by liquid scintillation spectrometry using a Beckman LS 5000TA liquid scintillation counter with an efficiency for tritium of approximately 55% . Inhibition constants (Ki values) were calculated using the EBDA/LIGAND program (McPherson, J. Pharmacol. Meth. 1985, 14, 213-228), purchased from Elsevier/Biosoft, Inc. Results are reported as Ki values or as a percent (%) inhibition of binding at 10

[1] = system: NMDA-induced neurotoxicity in cultured cortical neurons; assay: Antagonism of NMDA-induced neurotoxicity in cultured neurons (LDH release); assay type: cell-based, mouse (Swiss-Webster); conditions: 500 μM NMDA, 30 minutes, LDH activity at 24 hours, mouse cortical neurons
Method: Antagonism of NMDA-induced Neurotoxicityin Cultured Neurons
Preparation of Cultured Cortical Neurons
Pregnant, Swiss-Webster mice were obtained from Taconic Farms (Germantown, New York) and sacrificed 16 days post conception. Fetuses were removed and placed in a sterile dish containing Hank's balanced salt solution (HBSS), pH 7.4. Brain cortices were dissected, meninges were removed, the tissue was minced and placed into a solution of HBSS containing 0.25% (w/v) trypsin at 37° C. for 15 minutes. Tissue was then triturated with a sterile pasteur pipet, diluted with minimal essential media (Gibco 330-1430), pH 7.4, supplemented with 10% horse serum, 10% fetal calf serum, 2 mM 1-glutamine, 21 mM d-glucose, 2.2 g/L sodium bicarbonate, 1000 u/ml penicillin, and 1,000 μg/ml streptomycin. Cells were plated onto Falcon primaria 96 well plates at a final density of 50,000 cells/well and incubated at 37° C. in the presence of 5% (v/v) carbon dioxide. After 5 days, plating media was replaced with maintenance media containing minimal essential media (Gibco 330- 1430), pH 7.4, supplemented with 10% horse serum, 10% 1-glutamine, 21 mM d-glucose, 2.2 g/l sodium bicarbonate,1,000 U/ml penicillin, 1,000 μg/ml streptomycin, and 10 μM cytosine arabinoside. On days 7 and 10, media was replaced with maintenance media as above lacking the cytosine arabinoside. Experiments were conducted on day 13.
Neuroprotection Assessment
Day 13 cultured cortical neurons were washed twice with minimal essential media, pH 7.4 and then exposed for 30 minutes to 500 μM N-methyl-D-aspartic acid (NMDA) with or without varying concentrations of test agents. Dizocilpine (MK-801) at a final concentration of 10 μM MK-801 was routinely included as a positive control. MK-801 and test agents were prepared in minimal essential media supplemented with 21 mM d-glucose and 2.2 g/L sodium bicarbonate (MEM). After 30 minutes, media was replaced with MEM alone. Exposure of neurons to test agents was limited to the NMDA treatment period. Twenty-four hours after removal of NMDA, an aliquot of media from each well was removed for assessment of cell injury by determining lactate dehydrogenase (LDH) activity by. the method of Wroblewski and LaDue Proc. Soc. Exp. Biol. Med. 1955, 90, 210-213. The results are expressed as an IC50 (in nM) value (concentration causing 50% inhibition) for the antagonism of NMDA--inducedneurotoxicity.

Row | SMILES | Ki (PCP recognition sites) | further results
1 | CCOC1(OCC)C2c3cc(OC)ccc3C([n+]3ccccc32)C1(C)C (single isomer, unassigned) [20(a), 9-methoxy-12,12-diethoxy-13,13-dimethyl-6,11-ethano-6,11-dihydrobenzo[b]quinolizinium hexafluorophosphate] | 3.52 nM | IC50 [1]: 157 nM
2 | CCOC1(OCC)C2c3ccccc3C([n+]3ccccc32)C1(C)C (single isomer, unassigned) [Example 13(c), 12,12-diethoxy-13,13-dimethyl-6,11-ethano-6,11-dihydrobenzo[b]quinolizinium chloride-1/2-3/4 hydrate] |  | Ki (PCP recognition sites; hydrate): 11 nM; IC50 ([1]; Cortical neurone): 50 nM
3 | CCOC1(OCC)C2c3ccccc3C(C1C)[n+]1ccccc12 (single isomer, unassigned) [Example 37, 6,11-ethano-12,12-diethoxy-13-methyl-6,11-dihydrobenzo[b]quinolizinium] |  | IC50 ([1]; Cortical neurone): 810 nM
4 | CCOC1(OCC)C2c3ccccc3C(C1Cl)[n+]1ccccc12 (single isomer, unassigned) [Example 41, 6,11-ethano-12,12-diethoxy-13-chloro-6,11-dihydrobenzo[b]quinolizinium bromide] | 67 nM | IC50 ([1]; Cortical neurone): 445 nM
5 | CCOC1(OCC)C2c3ccccc3C([n+]3ccccc32)C1(C)C.[O-][Cl+3]([O-])([O-])[O-] (centres unmarked) [1(a), 12,12-diethoxy-13,13-dimethyl-6,11-ethano-6,11-dihydrobenzo[b]quinolizinium perchlorate] | 8.4 nM | IC50 ([1]; Cortical neurone): 17 nM
6 | CCOC1(OCC)C2c3c(OC)cccc3C([n+]3ccccc32)C1(C)C (centres unmarked) [19(d), 10-methoxy-12,12-diethoxy-13,13-dimethyl-6,11-ethano-6,11-dihydrobenzo[b]quinolizinium chloride·3/2 hydrate] |  | Ki (PCP recognition sites; hydrate): 10.4 nM; IC50 ([1]; Cortical neurone): 21.8 nM
7 | CCOC1(OCC)CC2c3ccccc3C1c1cccc[n+]12 (centres unmarked) [28(b), 6,11-ethano-12,12-diethoxy-6,11-dihydrobenzo[b]quinolizinium chloride] | 4270 nM | IC50 ([1]; Cortical neurone): 95500 nM
8 | CCOC1(OCC)C2c3c(Br)cccc3C([n+]3ccccc32)C1(C)C (centres unmarked) [Example 30, 6,11-ethano-12,12-diethoxy-13,13-dimethyl-10-bromo-6,11-dihydrobenzo[b]quinolizinium chloride] | 107 nM | 
9 | CCOC1(OCC)C2c3c(ccc4c3OCO4)C([n+]3ccccc32)C1(C)C.[O-][Cl+3]([O-])([O-])[O-] (centres unmarked) [Example 31, 6,11-ethano-12,12-diethoxy-13,13-dimethyl-9,10-methylenedioxy-6,11-dihydrobenzo[b]quinolizinium perchlorate] | 7.42 nM | 
10 | CCOC1(OCC)C2(C)c3c(OC)cccc3C([n+]3ccccc32)C1(C)C.[O-][Cl+3]([O-])([O-])[O-] (centres unmarked) [Example 32, 6,11-ethano-12,12-diethoxy-13,13-dimethyl-10-methoxy-11-methyl-6,11-dihydrobenzo[b]quinolizinium perchlorate] | 63.7 nM | 
11 | CCOC1(OCC)C2c3ccccc3C([n+]3cccc(OC)c32)C1(C)C.[O-][Cl+3]([O-])([O-])[O-] (centres unmarked) [Example 33, 6,11-ethano-12,12-diethoxy-13,13-dimethyl-1-methoxy-6,11-dihydrobenzo-[b]quinolizinium perchlorate] | 25.8 nM | 
12 | CCOC1(OCC)C2c3ccccc3C(C1Br)[n+]1ccccc12.[O-][Cl+3]([O-])([O-])[O-] (centres unmarked) [Example 36, 6,11-ethano-12,12-diethoxy-13-bromo-6,11-dihydrobenzo[b]quinolizinium perchlorate] | 20.4 nM | 
13 | COC1(O[Si](C)(C)C)C2c3ccccc3C([n+]3ccccc32)C1(C)C.[O-][Cl+3]([O-])([O-])[O-] (centres unmarked) [Example 40, 6,11-ethano-12-methoxy-12-trimethylsilyloxy-13,13-dimethyl-6,11-dihydrobenzo[b]quinolizinium perchlorate] | 1600 nM | 
14 | CCN(CC)C1C2c3ccccc3C([n+]3ccccc32)C1(C)C (centres unmarked) [Example 44, 6,11-ethano-12-(diethyl) amino-13,13-dimethyl-6,11-dihydrobenzo[b]quinolizinium diperchlorate] | 501 nM | 
15 | C[C@@H]1C[C@@H](C)OC2(O1)C1c3ccccc3C([n+]3ccccc31)C2(C)C (stereo partly drawn) [Example 45, 6,11-ethano-12,12-(2R,4R-pentanediolketal)-13,13-dimethyl-6,11-dihydrobenzo[b]quinolizinium perchlorate] | 517 nM | 
16 | CCOC1(OCC)C2c3c(C)cccc3C([n+]3ccccc32)C1(C)C.[O-][Cl+3]([O-])([O-])[O-] (centres unmarked) [Example 47, 6,11-ethano-12,12-diethoxy-13,13-dimethyl-10-methyl-6,11-dihydrobenzo[b]quinolizinium perchlorate] | 45.5 nM | 
17 | CCOC1C2c3ccccc3C([n+]3ccccc32)C1(C)C.[O-][Cl+3]([O-])([O-])[O-] (centres unmarked) [Example 48, 6,11-ethano-12-ethoxy-13,13-dimethyl-6,11-dihydrobenzo[b]quinolizinium perchlorate] | 2150 nM | 
18 | CCOC1(OCC)C2c3c(OC)ccc(OC)c3C([n+]3ccccc32)C1(C)C.[O-][Cl+3]([O-])([O-])[O-] (centres unmarked) [Example 52, 6,11-ethano-12,12-diethoxy-13,13-dimethyl-7,10-dimethoxy-6,11-dihydrobenzo[b]quinolizinium perchlorate] |  | Percent inhibition, [3H]TCP (internal screen) (PCP recognition sites): 33%
19 | CCOC1(OCC)C2c3cccc(C)c3C([n+]3ccccc32)C1(C)C (centres unmarked) [Example 55, 6,11-ethano-12,12-diethoxy-13,13-dimethyl-7-methyl-6,11-dihydrobenzo[b]quinolizinium chloride] | 455 nM | 
20 | CC(=O)Oc1ccc(C(C)(C)C)c2c1C1[n+]3ccccc3C2C2(O[C@H](C)[C@@H](C)O2)C1(C)C (stereo partly drawn) [Example 56, 6,11-ethano-12,12-(2R,3R-butanediolketal)-13,13-dimethyl-7-acetoxy-10-t-butyl-6,11-dihydrobenzo[b]quinolizinium perchlorate] |  | Percent inhibition, [3H]TCP (internal screen) (PCP recognition sites): 24%
21 | CC(=O)Oc1ccc(C(C)(C)C)c2c1C1[n+]3ccccc3C2C2(O[C@H](C)C[C@@H](C)O2)C1(C)C (stereo partly drawn) [Example 57, 6,11-ethano-12,12-(2R,4R-pentanediolketal)-13,13-dimethyl-7-acetoxy-10-t-butyl-6,11-dihydrobenzo[b]quinolizinium perchlorate] |  | Percent inhibition, [3H]TCP (internal screen) (PCP recognition sites): 18%
22 | CCOC1(OCC)C2c3c(C(C)(C)C)ccc(OC(C)=O)c3C([n+]3ccccc32)C1(C)C.[O-][Cl+3]([O-])([O-])[O-] (centres unmarked) [Example 58, 6,11-ethano-12,12-diethoxy-13,13-dimethyl-7-acetoxy-10-t-butyl-6,11-dihydrobenzo[b]quinolizinium perchlorate] |  | Percent inhibition, [3H]TCP (internal screen) (PCP recognition sites): 12%
23 | CCN(CC)C1C2c3ccccc3C(C1C)[n+]1ccccc12 (centres unmarked) [Example 62, 6,11-ethano-12-(diethyl) amino-13-methyl-6,11-dihydrobenzo[b]quinoliziniumperchlorate] | 12200 nM | 
